According to patent EP2265632B1, “CD4-RELATED POLYPEPTIDES AND METHODS OF USE” (priority 2008, dated 2009):

How the values were obtained:
[1] = Peptide analyses: oxidation state by discontinuous Tris/Tricine PAGE with densitometry; format: physicochemical; conditions: for peptide existing as monomers: densitometric analysis; for peptide existing as monomers / oxidation state of the peptide: no reducing agent; for oxidation state of the peptide: reconstituted in PBS (pH 7.4), Tris/Tricine PAGE
Procedure: Peptide analyses. Synthetic 7-mer peptides Hel-S (RRSLWDQ, SEQ ID NO:10), Hel-Cs (DLRQCWR, SEQ ID NO:27) and Hel-C (RRCLWDQ, SEQ ID NO:2) were analysed by discontinuous PAGE according to the method of Schagger and von Zagau with modifications. Briefly, 2.5 µg of each lyophilized peptide reconstituted in pure H2O was mixed with a reducing agent-free loading buffer (0.1 M Tris, 20% glycerol, 8% SDS and 0.02% Coomassie blue G-250), incubated at 80°C for 3 minutes and loaded onto a 17.5% Tris/Tricine gel. Samples were resolved at 20 mAper gel until stacked (1-2 hours) and at 35 mA for 16 hours through the resolving gel. The gel was fixed by incubation in a 5% glutaraldehyde solution for 1 hour and then stained with Coomassie Blue-R250. Peptide monomer/dimer ratios were calculated by densitometry using Quantity One® software (BioRad, Hercules, CA (USA)). To evaluate the redox states of cysteine-containing peptides further, reduced Glutathione (GSH) (Sigma, UK), β-mercaptoethanol and dithiothreitol (DTT) were included in the sample loading buffer at concentrations ranging from 0 to 400 mM, and the samples were resolved and analysed as described above.
Peptide Analyses. We analysed the oxidation states of the synthetic peptides Hel-S, Hel-Cs and Hel-C following reconstitution in PBS (pH 7.4) by high resolution Tris/Tricine PAGE (resolving buffer pH = 8.0). As expected, in aqueous solution at close to neutral pH, the wild-type CD4-mimetic peptide Hel-S consisted of a pure monomer of molecular weight equal to approximately 1 kDa (predicted Mw = 976 g/mol). […] The latter are evident as bands of approximately 2 kDa, which presumably result from intermolecular disulfide bond formation. […] We then treated Hel-C with the thiol-containing reducing compounds β-mercaptoethanol (β-ME) and 1,4-dithiothreitol (DTT) to determine relative effects on cysteine oxidation in this peptide.

[2] = tested on: recombinant gp120BaL; experiment: Electrophoretic mobility shift assay (EMSA) with [14C]-acetylated peptides, scintillation counting of excised gp120; format: binding, HIV-1; conditions: for peptide associated with excised gp120: 5 µM gp120BaL, 500 µM radiolabeled peptide, no reducing agent
Procedure: Peptide N-terminal [^14C]-Acetylation. Hel-S, Hel-Cs and Hel-C were radioactively labeled by N-terminal acetylation according to the method of Fraenkel-Conrat and Colloms with modifications. Briefly, peptides were reconstituted in an ice cold saturated solution of sodium acetate (> 3 M) to a concentration of 5 mM. [^14C]-Acetic anhydride (specific activity 116 mCi/mmol, Amersham Biosciences, UK) was then added to 100 µl of the reconstituted peptide solution in two 1 µl installments over 15 minutes, and the labeling reactions were incubated for 2 hours on ice. After addition of the final acetic anhydride installment, the reaction concentrations of both peptide and acetic anhydride were 5 mM, and the samples contained 1% toluene and 500 nCi/µl of [^14C]. An equal volume (100 µl) of ice cold PBS (pH 7.4) was then added to each reaction. For buffer exchange and removal of unincorporated radiolabel, the [^14C]-labeled peptides were purified chromatographically using Sephadex G-10 spin columns (Sigma, UK) equilibrated in PBS (pH 7.4). The concentration of the purified labeled peptides was determined by measuring A280, and the labeling efficiencies were analysed by discontinuous PAGE and fluorescence autoradiography, as well as by liquid scintillation counting using Packard Tri-Carb 2200 Liquid Scintillation Analyzer. Labeled peptides were stored in 50 µl aliquots at -80°C.
Electrophoretic Mobility Shift Assay (EMSA). Peptide-gp120 binding reactions were set up in 50 µl and contained 5 µM of pure recombinant gp120BaL and 500 µM of radio labeled Hel-S, Hel-Cs or Hel-C in PBS (pH 7.4). Reactions were incubated at 25°C for 3 hours and then stopped by the addition of an equal volume (50 µl) of either reducing agent-free loading buffer (0.1 M Tris, 20% glycerol, 8% SDS and 0.02% Coomassie blue G-250) or the same buffer containing 1, 10 or 100 mM of DTT. The samples were incubated at 80°C for 3 minutes before loading on a 20 × 20 cm 6 - 20% gradient Tris/Tricine polyacrylamide gel, and were resolved at a constant 40 V for 16 hours at room temperature. After electrophoresis, the gel was rinsed thoroughly with H2O and then stained lightly by incubation in a solution containing 10% methanol, 10% acetic acid and 0.02% Coomassie Blue R-250 for 10 minutes with gentle shaking. The gel was rinsed with H20, and bands corresponding to gp120 were excised using a gel punch and placed in 1.5 ml microcentrifuge tubes. The gp120-containing polyacrylamide slices were solubilized by incubation at 37°C for 16 hours in 400 µl of a solution containing 30% H2O2 and 0.03% ammonium hydroxide. The dissolved polyacrylamide samples were added to 2 ml of Aquasol-2 scintillation cocktail (Perkin Elmer, USA), and radioactive emissions expressed as counts per minute (cpm) measured by scintillation counting.
Hel-C Binds gp120 through disulfide linkage on gp120. We adopted two independent approaches to evaluate the potential of Hel-C to bind recombinant gp120. First, we used an electrophoretic mobility shift assay (EMSA) to detect gp120-bound peptides following resolution of peptide/protein mixtures on denaturing gradient polyacrylamide gels. This method also enabled us to determine whether the mechanism of binding could be related to the establishment of disulphide bonds between the peptides and target gp120, by measuring the proportion of bound peptide in response to increasing doses of DTT. For detection, we decided to incorporate as small a label as possible into the peptide, so that steric effects of the labeling procedure would be minimal (such as would be the case with larger fluorescent/antigenic tags), and that the peptide would be able to adopt a secondary structure as close as possible to the R59-Q64 α-helix chain in CD4. We therefore labeled Hel-C and the control peptides Hel-S and Hel-Cs with [^14C]-acetic anhydride, which incorporated a single [^14C]-acetyl group on the peptide N-termini. […]

[3] = tested on: gp120BaL; experiment: Epitope occlusion assay (ELISA): competition with anti-gp120 MAbs for immobilized gp120; format: binding, HIV-1; conditions: for effect on binding of MAb 654-30D to gp120: CD4bs-directed MAb 654-30D 0.2 nM; for effect on binding of MAb 654-30D to gp120 / effect on binding of MAb b12 to gp120 / effect on binding of MAb 2G12 to gp120 / effect on binding of MAb B4a1 to gp120: 2dCD4 0 to 1 µM or peptides 0 to 1 mM; for effect on binding of MAb b12 to gp120: CD4bs-directed MAb b12 0.2 nM; for effect on binding of MAb 2G12 to gp120: CD4bs-independent MAb 2G12 0.2 nM; for effect on binding of MAb B4a1 to gp120: CD4bs-independent MAb F425 B4a1 (V3 loop) 0.2 nM
[4] = tested on: recombinant gp120BaL; experiment: Surface plasmon resonance (Biacore 3000) on immobilized gp120; format: binding, HIV-1
Procedure: Surface Plasmon Resonance. All surface Plasmon resonance (SPR) experiments were performed on a BIA3000 optical biosensor (Biacore Inc., Uppsala, Sweden). Recombinant gp120BaL was immobilized on CM5 sensor chips by amine coupling according to the manufacturer's instructions. Briefly, a solution of 0.2 M EDC and 0.05 M NHS was used to activate carboxyl groups on the sensor surface at a flow rate of 5 µL/min for 10 minutes. Recombinant gp120BaL, dissolved in 100 mM sodium acetate buffer (pH 5.5) to a final concentration of 0.05 µM, was passed over the sensor chip surface at a flow rate of 5 µL/min until an immobilization level of 5000 RU was achieved. Excess carboxyl groups were capped by injection of 1 M ethanolamine (pH 8.0) at a flow rate of 5 µL/min for 5 minutes. Unbound ligand was removed by injecting 10 mM glycine (pH 2.5) at a flow rate of 5 µL/min for 2 minutes. In all experiments, the neighbouring flow cell was treated as mentioned above without the immobilization of gp120BaL, and this served as a reference surface. Prior to all experiments, the functionalities of the gp120 surfaces were tested by binding sCD4 at 500 nM in HEPES-buffered saline supplemented with 0.15 M NaCl (HBS-N, pH7.4). Analyte solutions were prepared in HBS-N at least 30 minutes prior to injection. All binding experiments were performed in duplicate at 25°C. For peptide binding analyses, increasing concentrations of peptide (from 0 to 500 µM) were passed over the surface at a flow rate of 5 µL/min, with a 5 minute association phase and a 6 minute dissociation phase. Surfaces were regenerated with a 20 mM sodium hydroxide (NaOH) solution between consecutive peptide analyses. The integrity of the surfaces was tested after each regeneration for sCD4 binding. Buffer injections and control surface binding were subtracted for all reported data.
Recombinant gp120BaL was immobilized on CM5 sensorchips and exposed to increasing concentrations of Hel-S, Hel-Cs or Hel-C.
The reasons for the slight difference are likely to be related to the different target gp120s used in these studies. […] Our data thus fit to a direct binding model consistent with 1:1 stoichiometry, and closely match previously published results.

Row | Substance | peptide existing as monomers [1] | oxidation state of the peptide [1] | peptide associated with excised gp120 [2] | effect on binding of MAb 654-30D to gp120 [3] | effect on binding of MAb b12 to gp120 [3] | effect on binding of MAb 2G12 to gp120 [3] | effect on binding of MAb B4a1 to gp120 [3] | other results
1 | DLRQCWR [Hel-Cs] | less than 10% | mixture of monomers and dimers | small amount | did not compete | did not compete | did not compete | did not compete | effect on binding of MAb b12 to gp120 ([3]; listed as scrambled): does not
2 | RINNIPWSEAMM [12p1, reference compound] | – | – | – | – | – | – | – | calculated Rmax ([4]; 5000 RU gp120BaL surface): approximately 67 RU; amount bound ([4]; just over 100 µM peptide, 5000 RU gp120 BaL surface): approximately 45 RU
3 | RRCLWDQ [Hel-C, linear CD4-mimetic 7-mer peptide, R58 to Q64 of mature CD4 with S60C mutation] | less than 10% | mixture of monomers and dimers | significant quantity | dose-dependent inhibitory effect | dose-dependent inhibitory effect | did not compete | did not compete | proportion of Hel-C monomer ([1]; DTT at 10 mM): 50%; effect of DTT on cysteine oxidation ([1]; DTT at 200 mM): completely abolished the ability of the peptide to oxidize; effect of β-ME on cysteine oxidation ([1]; β-ME at 200 mM): unable to monomerize the peptide completely; amount of bound peptide relative to the amount bound in the absence of any reducing compound ([2]; 100 mM DTT): 10%; mode of binding to gp120 (EMSA) ([2]; C14-radioactively labeled peptide, denaturing gels, absence and presence of reducing agents): binds covalently; amount of Hel-C bound to gp120 ([2]; increasing amounts of DTT added): decreased; mode of binding to gp120 (SPR binding kinetics) ([4]; both monomeric and trimeric gp120 proteins): binds covalently; binding to recombinant gp120 ([4]; conclusion from EMSA and SPR collectively): able to bind recombinant gp120; effect on binding of MAb b12 to gp120 ([3]; listed as S85C): appear to block; relief of Hel-C-mediated inhibition of b12-gp120 binding ([3]; peptide pre-treated with 20 mM DTT): complete; relief of Hel-C-mediated inhibition of b12-gp120 binding ([3]; peptide pre-treated with 20 mM β-mercaptoethanol): only partially rescued b12 binding; effect of reducing compounds on the amount of 2G12 bound in the presence or absence of peptide ([3]; peptide pre-treated with 20 mM β-mercaptoethanol or DTT): no effect
4 | RRSLWDQ [Hel-S] | – | pure monomer | no detectable | did not compete | did not compete | did not compete | did not compete | effect on binding of MAb b12 to gp120 ([3]; listed as native): does not
